Structures can show the parent of a compound that is named as a salt.

Assay [1] relates to KMS.12.BM cell line (human myeloma). Put plainly: KMS.12.BM cell viability assay. The assay is classed as cell-based. The following applies: 72 h, KMS.12.BM cells, 3 days, Cell Titer-GLO ATP quantitation, read-out: KMS cellular IC50. The protocol: KMS.12.BM Cell Viability Assay
KMS.12.BM cell line (human myeloma) was purchased from JCRB (Osaka, Japan) and maintained in RPMI with 10% FBS culture medium. To measure the cytotoxic activity of the compounds through ATP quantitation, the KMS. 12.BM cells are plated in the RPMI culture medium at 5000 cells/well/per 100 μL into a 96-well polystyrene clear black tissue culture plate (Greiner-bio-one through VWR, NJ), in the presence or absence of a concentration range of test compounds. After 3 days, […] Cell Titer-GLO Luminescent (Promega, Madison, Wis.) cell culture agent is added to each well for 10 minutes at room temperature to stabilize the luminescent signal. This determines the number of viable cells in culture based on quantitation of the ATP present, which signals the presence of metabolically active cells. Luminescence is measured with the Top Count 384 (Packard Bioscience through Perkin Elmer, Boston, Mass.). Compound inhibition is determined relative to cells cultured with no drug and the IC50 reported as the compound concentration required for 50% cell death.
(In general: Cellular ATP, detected with luciferase, serves as a proxy for viable cell number.)

A further assay has as its target BRD4-BD1 (Homo sapiens (Human), UniProt O60885). Put plainly: BRD4 AlphaScreen assay (BD1). Particulars: biotin-labeled tetra-acetylated histone H4 peptide, 3.8 nM BRD4-BD1, read-out: BRD4 BD-1 enzyme IC50. Format: binding. The protocol:
(§1) BRD4-BD1 and BRD4-BD2 assays were conducted in white 384-well polystyrene plate in a final volume of 20 μL for BD1 and 40 μL for BD2. Inhibitors were first serially diluted in DMSO and added to the plate wells before the addition of other reaction components. The final concentration of DMSO in the assay was 1.25% (BD1) and 0.83% (BD2). The assays were carried out at room temperature for 75 min. in the assay buffer (50 mM HEPES, pH 7.4, 100 mM NaCl, 0.05% CHAPS, 0.01% BSA), containing 50 nM Biotin-labeled tetra-acetylated histone H4 peptide (H4Ac4), 3.8 nM (BRD4-BD1, BPS Bioscience #31040) or 20 nM (BRD4-BD2, BPS Bioscience #31041). The reaction followed by the addition of 20 μL of assay buffer supplemented with Streptavidin donor beads (PerkinElmer 6760002) and GSH Acceptor beads (PerkinElmer-AL109C) at 4 jag/mL under reduced light. After plate sealing, the plate was incubated in the dark at room temperature for 75 min. before reading on a PHERAstar FS plate reader (BMG Labtech). IC50 determination was performed by fitting the curve of percent control activity versus the log of the inhibitor concentration using the GraphPad Prism 5.0 software.
Background: Alpha assays give light when donor and acceptor beads are brought close together.

A further assay concerns the target BRD4-BD2 (Homo sapiens (Human), UniProt O60885). Put plainly: BRD4 AlphaScreen assay (BD2). Particulars: biotin-labeled tetra-acetylated histone H4 peptide, 20 nM BRD4-BD2, read-out: BRD4 BD-2 enzyme IC50. The assay is classed as binding. The procedure:
as §1

For orientation: IC50 means the point on the concentration scale where inhibition reaches its midpoint. Turning to `Cc1noc(C)c1-c1ccc2c(=O)[nH]n3c2c1OCC3c1ccccc1` (centres unmarked) [Example 1, 9-(3,5-Dimethylisoxazol-4-yl)-3-phenyl-2,3-dihydro[1,4]oxazino[2,3,4-hi]indazol-6(5H)-one], the figures for the IC50 (in assay [1]; at BRD4-BD1; on BRD4-BD2) were no more than 1000 nM, no more than 200 nM and no more than 200 nM, respectively.

As to `Cc1noc(C)c1-c1ccc2c(=O)n(C)n3c2c1OCC3c1ccccc1` (centres unmarked) [Example 2, 9-(3,5-Dimethylisoxazol-4-yl)-5-methyl-3-phenyl-2,3-dihydro[1,4]oxazino[2,3,4-hi]indazol-6(5H)-one], the half-inhibitory concentration (IC50) in assay [1] is no more than 1000 nM; at BRD4-BD1, no more than 200 nM; on BRD4-BD2 it was no more than 200 nM.

On to `COc1nn2c3c(c(-c4c(C)noc4C)ccc13)OCC2c1ccccc1` (centres unmarked) [Example 3, 9-(3,5-Dimethylisoxazol-4-yl)-6-methoxy-3-phenyl-2,3-dihydro[1,4]oxazino[2,3,4-hi]indazole], for which the 50% inhibitory concentration (IC50) was no more than 1000 nM in assay [1], no more than 200 nM at BRD4-BD1 and no more than 200 nM at BRD4-BD2.

Consider `Cc1noc(C)c1-c1ccc2cnn3c2c1OCC3c1ccccc1` (centres unmarked) [Example 4, 9-(3,5-Dimethylisoxazol-4-yl)-3-phenyl-2,3-dihydro[1,4]oxazino[2,3,4-hi]indazole], for which the results for the IC50 (in assay [1]; on BRD4-BD1; on BRD4-BD2) were no more than 1000 nM, no more than 200 nM and no more than 200 nM, respectively.

As for `Cc1noc(C)c1-c1ccc2c(=O)[nH]n3c2c1OCC3c1ccccn1` (centres unmarked) [Example 5, 9-(3,5-Dimethylisoxazol-4-yl)-3-pyridin-2-yl-2,3-dihydro[1,4]oxazino[2,3,4-hi]indazol-6(5H)-one], the IC50 in assay [1] is no more than 1000 nM; at BRD4-BD1, 200 to 1000 nM; on BRD4-BD2, no more than 200 nM.

Take `Cc1noc(C)c1-c1ccc2c(=O)n(C)n3c2c1OCC3c1ccccn1` (centres unmarked) [Example 6, 9-(3,5-Dimethylisoxazol-4-yl)-5-methyl-3-pyridin-2-yl-2,3-dihydro[1,4]oxazino[2,3,4-hi]indazol-6(5H)-one]: the IC50 in assay [1] was no more than 1000 nM; at BRD4-BD1 it was no more than 200 nM; on BRD4-BD2, no more than 200 nM.

Turning to `COc1nn2c3c(c(-c4c(C)noc4C)ccc13)OCC2c1ccccn1` (centres unmarked) [Example 7, 9-(3,5-Dimethylisoxazol-4-yl)-6-methoxy-3-pyridin-2-yl-2,3-dihydro[1,4]oxazino[2,3,4-hi]indazole], the concentration for half-maximal inhibition (IC50) in assay [1] is no more than 1000 nM; at BRD4-BD1, no more than 200 nM; on BRD4-BD2 it was no more than 200 nM.

As to `Cc1noc(C)c1-c1ccc2cnn3c2c1OCC3c1ccccn1` (centres unmarked) [Example 8, 9-(3,5-Dimethylisoxazol-4-yl)-3-pyridin-2-yl-2,3-dihydro[1,4]oxazino[2,3,4-hi]indazole trifluoroacetate], the figures for the IC50 (in assay [1]; at BRD4-BD1; at BRD4-BD2) were no more than 1000 nM, no more than 200 nM and no more than 200 nM, respectively.

As for `Cc1noc(C)c1-c1cc(Br)c2cnn3c2c1OCC3c1ccccc1` (centres unmarked) [Example 9, 7-Bromo-9-(3,5-dimethylisoxazol-4-yl)-3-phenyl-2,3-dihydro[1,4]oxazino[2,3,4-hi]indazole], the 50% inhibitory concentration (IC50) is 1000 to 10000 nM in assay [1], 200 to 1000 nM on BRD4-BD1 and no more than 200 nM at BRD4-BD2.

Consider `Cc1noc(C)c1-c1ccc2c(=O)[nH]n3c2c1OCC3c1cccnc1` (centres unmarked) [Example 10, 9-(3,5-Dimethylisoxazol-4-yl)-3-pyridin-3-yl-2,3-dihydro[1,4]oxazino[2,3,4-hi]indazol-6(5H)-one], for which the values for the half-maximal inhibitory concentration (IC50) (in assay [1]; on BRD4-BD1; at BRD4-BD2) were 1000 to 10000 nM, 200 to 1000 nM and no more than 200 nM, respectively.

With `Cc1noc(C)c1-c1ccc2c(=O)n(C)n3c2c1OCC3c1cccnc1` (centres unmarked) [Example 11, 9-(3,5-Dimethylisoxazol-4-yl)-5-methyl-3-pyridin-3-yl-2,3-dihydro[1,4]oxazino[2,3,4-hi]indazol-6(5H)-one], the IC50 was no more than 1000 nM in assay [1], no more than 200 nM at BRD4-BD1 and no more than 200 nM at BRD4-BD2.

As for `COc1nn2c3c(c(-c4c(C)noc4C)ccc13)OCC2c1cccnc1` (centres unmarked) [Example 12, 9-(3,5-Dimethylisoxazol-4-yl)-6-methoxy-3-pyridin-3-yl-2,3-dihydro[1,4]oxazino[2,3,4-hi]indazole], the 50% inhibitory concentration (IC50) in assay [1] was no more than 1000 nM; on BRD4-BD1, no more than 200 nM; at BRD4-BD2, no more than 200 nM.

Take `Cc1noc(C)c1-c1cc(F)c2nnn3c2c1OCC3c1cccnc1` (centres unmarked) [Example 13, 7-(3,5-Dimethylisoxazol-4-yl)-9-fluoro-4-pyridin-3-yl-4,5-dihydro[1,2,3]triazolo[1,5,4-de][1,4]benzoxazine trifluoroacetate]: the figures for the IC50 at BRD4-BD1 and on BRD4-BD2 were greater than 1000 nM and 200 to 1000 nM, respectively.

These data come from patent US9850257B2, “Tricyclic heterocycles as BET protein inhibitors” (Incyte Corporation, priority 2013, dated 2017).
